Laboratory results from ChEMBL document CHEMBL3507680, “University of Dundee, Gates Library screen for HepG2 cell viability”.

Test: Human HepG2 cell viability assay in 384 well format
Assay type: toxicity, cell-based
Parameters: dose 125 nL, time 70.5 hour; concentration not given beside the values
Details: HepG2 cells, read-out: Inhibition

Structure (SMILES) | cytotoxicity at 70.5 h
CN(Cc1ccccc1)C(=O)CN1CCOC(Cn2cncn2)C1 (stereo not drawn) | -6.53%
CCCNC(=O)C1CCCN(Cc2csc(C(C)(C)C)n2)C1 (stereo not drawn) | 17.8%
COCCCN1CCCC1c1noc(C2CC2)n1 (stereo not drawn) | 23.8%
c1ccc(Cc2nnc(CN3CCOC(Cn4cccn4)C3)o2)cc1 (stereo not drawn) | 0.701%
CCn1cc(NC(=O)NCC(C)N(C)C2CC2)cn1 (stereo not drawn) | -4.71%
CCc1n[nH]c(C2CN(Cc3nnc(C4CCC4)o3)CCO2)n1 (stereo not drawn) | -7.61%
CCN1CCN(C2CCN(Cc3nc(C)c(C)o3)CC2)C1=O | -3.68%
Clc1snnc1CN1CCCCC1Cn1cccn1 (stereo not drawn) | 26.2%
c1ncn(CC2CCCCN2Cc2csc(-c3ccsc3)n2)n1 (stereo not drawn) | -7.71%
COCc1nc(CN(CC(N)=O)C(C)C)cs1 | -3.43%
CCc1n[nH]c(C2CN(Cc3nnc(C4CC4)o3)CCO2)n1 (stereo not drawn) | -1.31%
Cc1nc(C)n(C2CCCN(C(=O)c3sccc3C)C2)n1 (stereo not drawn) | -5.74%
COc1cc(C)sc1C(=O)N1CCCC(n2nc(C)nc2C)C1 (stereo not drawn) | 21.7%
CCCc1n[nH]c(C2CN(Cc3nnc(C4CCC4)o3)CCO2)n1 (stereo not drawn) | -5.35%
CC(NC(=O)NCCCc1n[nH]c(N)c1C#N)c1ccc(F)cc1 (stereo not drawn) | -6.13%
CCOc1ncccc1CNC(=O)NCC(O)c1ccccc1OC (stereo not drawn) | -1.39%
Cn1c(NCC(O)c2ccc(F)c(F)c2)c(C#N)c(=O)n(C)c1=O (stereo not drawn) | 1.75%
COc1ccccc1C(O)CNC(=O)Nc1ccccn1 (stereo not drawn) | -5.18%
COc1cc(C(=O)Nc2nc(C)no2)cc(Cl)c1OC | -3.51%
CCc1nc(CN(C)CC(N)=O)cs1 | -4.25%
COc1ccc(OC)c(C(O)CNC(=O)Nc2cccnc2OC)c1 (stereo not drawn) | -6.93%
COc1ccccc1C(O)CNC(=O)Nc1cccnc1OC (stereo not drawn) | -3.1%
COc1ccccc1C(O)CNc1c(C#N)c(=O)n(C)c(=O)n1C (stereo not drawn) | -0.895%
CC(C)c1nc(CN(CC(N)=O)C(C)C)cs1 | -2.05%

Structure (SMILES) | cytotoxicity at 70.5 h
CN(C)C(=O)C1CCN(Cc2csc(C(C)(C)C)n2)CC1 | 18%
c1ncn(CC2CCCN2Cc2csc(C3CCCCC3)n2)n1 (stereo not drawn) | 1.84%
Clc1snnc1CN1CCCC1Cn1cccn1 (stereo not drawn) | -1.24%
COc1ccsc1C(=O)N1CCCC(n2nc(C)cc2C)C1 (stereo not drawn) | -3.66%
Cc1nc(CN2CCC(N3CCN(C)C3=O)CC2)no1 | 18%
COc1cc(Cl)ccc1C(=O)N1CCCC(n2nc(C)nc2C)C1 (stereo not drawn) | -0.226%
COc1ccsc1C(=O)N1CCCC(n2cncn2)C1 (stereo not drawn) | -2.59%
CC(C)(C)c1n[nH]c(C2CN(Cc3nnc(C4CC4)o3)CCO2)n1 (stereo not drawn) | -6.03%
CCc1nc(CN(C(C)=O)C2CCN(Cc3ccccc3F)C2)no1 (stereo not drawn) | -7.96%
COc1ccccc1OCCNC1CCCN(Cc2noc(C)n2)C1 (stereo not drawn) | 31.2%
CCc1nc(CN(C(C)=O)C2CCN(CC3CCOCC3)C2)no1 (stereo not drawn) | -9.95%
COc1ccc(CCNC2CCCN(Cc3noc(C)n3)C2)cc1 (stereo not drawn) | -14%
O=C1C(NS(=O)(=O)c2ccc(F)cc2)CCN1Cc1ccccc1 (stereo not drawn) | -13.4%
COc1ccc(C2=CCN(C(=O)CN(C)S(C)(=O)=O)CC2)cc1 | -10.2%
COc1ccc(C2=CCN(C(=O)CN(CC(N)=O)C(C)C)CC2)cc1 | -4.3%
Cc1cc(CN2CCN(CC(O)c3ccc4c(c3)OCO4)CC2)no1 (stereo not drawn) | -10.8%
Cc1nc(C)n(CC2CCCN2CCOc2ccccc2C#N)n1 (stereo not drawn) | -13.6%
Cc1cc(CN2CCN(CC(O)c3ccc(C)c(C)c3)CC2)no1 (stereo not drawn) | -7.74%
Cc1ccc(S(=O)(=O)NC(=O)COc2cccc(C(N)=O)c2)s1 | -10.7%
Cc1nc(C)n(CC2CCCN2CCCOc2ccc(C#N)cc2)n1 (stereo not drawn) | -4.85%
Cc1nc(C)n(CC2CCCN2CCOc2ccc(F)cc2)n1 (stereo not drawn) | -9.83%
Cc1nc(CN2CCCC(NCCOc3ccccc3C#N)C2)no1 (stereo not drawn) | -2.51%
Cc1cc(C)n(C2CCCN(C(=O)Cc3cccs3)C2)n1 (stereo not drawn) | 11%
CN1CCOC(CNCc2coc(-c3ccccc3Cl)n2)C1 (stereo not drawn) | 1.39%

Structure (SMILES) | cytotoxicity at 70.5 h
CCN(CC1CCCO1)C(=O)Nc1cc(C)ccc1S(C)(=O)=O (stereo not drawn) | -1.66%
O=C(Cc1cccnc1)N1CCCC(n2cncn2)C1 (stereo not drawn) | -1.4%
COCCOc1cccc(CNCC2CN(C)CCO2)c1 (stereo not drawn) | -0.0199%
CN1CCOC(CNCc2ccc(OCc3ccccn3)cc2)C1 (stereo not drawn) | -6.69%
Cc1cc(NC(=O)NCC(c2ccccc2)N2CCOCC2)n(C)n1 (stereo not drawn) | -3.59%
Cc1nc(CSCCC(=O)NCc2ccc(N(C)C)cc2)cs1 | -3.76%
Cc1cc(NC(=O)NCC(CC(C)C)N2CCOCC2)n(C)n1 (stereo not drawn) | 2.74%
CCOc1ccc(C#N)cc1NCC(=O)NC1(C#N)CCCC1 | -6.01%
CCNC(=O)NC(=O)CNc1cc(C#N)ccc1OCC | -3.61%
Cc1nn(C)c(C)c1C1CCCN1C(=O)c1cnc2n[nH]c(C)c2c1 (stereo not drawn) | -7.81%
Cc1cc(CN(C)C(=O)c2cc3c([nH]c2=O)CCCC3=O)no1 | -14.6%
COCCCNC(=O)CN(C)C(=O)c1cc(C)ccc1N(C)C(C)C | -3.7%
O=S(=O)(N(Cc1ccccn1)C1CC1)N1CCCC1c1ccco1 (stereo not drawn) | -8.96%
CC(NC(=O)NCCCn1ccnc1)c1ccc2c(c1)OCCCO2 (stereo not drawn) | -10.6%
Clc1ccc2cccnc2c1CN1CCCC1Cn1cncn1 (stereo not drawn) | -17.7%
O=C(c1ccc(Br)o1)N1CCCCC1Cn1cccn1 (stereo not drawn) | -10.3%
CCc1nc(CN2CCN(C(=O)c3cnccn3)CC2)cs1 | -5.66%
Cc1ncsc1C(=O)NCCSCc1cccs1 | -1.32%
COc1c(CNCCNC(=O)Cc2ccc(F)cc2)c(C)nn1C | 34.8%
COc1ccccc1CC(=O)N1CCC(NCc2cc[nH]c2)CC1 | 4.03%
CCC(C)(C)NC(=O)C1CC(=O)N(CC2CC2)C1 (stereo not drawn) | 27.7%
COc1ccccc1CC(=O)N1CCC(NCc2c[nH]nc2C)CC1 | 2.03%
c1ccc(Cc2noc(CNC3CCc4ncnn4C3)n2)cc1 (stereo not drawn) | -5.32%
COc1c(CNC2CCOc3ccccc32)c(C(C)C)nn1C (stereo not drawn) | -7.12%

Structure (SMILES) | cytotoxicity at 70.5 h
CC(=O)NCC1CCN(C(=O)c2csc(-c3ccc(C)cc3C)n2)CC1 | -10.6%
CCc1nnsc1C(=O)NCCn1nc2ccccn2c1=O | 31.6%
Cc1noc(C)c1C(=O)NCC(c1ccc(F)cc1)N(C)C (stereo not drawn) | -2.05%
NC(=O)C1CCN(CCc2ccc(NC(=O)C3CCC3)cc2)CC1 | -1.87%
COc1c(CNCCNC(=O)c2ccc(C)cc2)c(C)nn1C | 8.52%
O=C(NCCNc1ncccn1)Nc1cc(C(F)(F)F)c[nH]c1=O | -3.37%
O=c1[nH]c(CCN2CCCC(Cn3cncn3)C2)nc2ccccc12 (stereo not drawn) | -0.545%
CCOc1cc(C)nc(N2CCN(C(=O)CC)CC2)n1 | -8.45%
Cc1nccn1C1CCCN(C(=O)c2ccc3c(c2)COC3)C1 (stereo not drawn) | -3.92%
O=C(Nc1ccc(CCN2CCC(O)CC2)cc1)C1CCOCC1 | 9.76%
Cc1noc(C)c1C(=O)NCC(O)c1ccc(F)cc1F (stereo not drawn) | 27.1%
Cc1cc(CN2CCCC2c2noc(C3CC3)n2)c2ccccc2n1 (stereo not drawn) | 51.7%
Cc1nnc(NCc2ccccc2Cl)c(C#N)c1C | -9.79%
Cc1cc(C)n(CC2CCCN2C(=O)c2cnn(C)c2C2CC2)n1 (stereo not drawn) | -11.8%
CC(C)C(C(=O)N1CCCN(Cc2nccn2C)CC1)N1CCCC1 (stereo not drawn) | 30.4%
CN(Cc1cccc(F)c1)C1CCN(CCc2ccccn2)CC1 | 15.1%
Cc1ccc(-c2cc(CNC(=O)N3CCC(CO)CC3)on2)cc1 | 5.23%
Cc1nc(CNC(=O)NCC(O)c2ccc(F)c(F)c2)cs1 (stereo not drawn) | 1.43%
CCN1CCC(CNC(=O)NCc2cc(-c3ccc(C)cc3)no2)C1 (stereo not drawn) | -1.11%
COc1ccc(C(O)CNC(=O)NCc2csc(C)n2)cc1 (stereo not drawn) | 27.2%
CCC1CN(C(=O)Nc2cnc3c(cnn3C(C)C)c2)CCO1 (stereo not drawn) | 1.85%
COc1ccc(OCCCNC(=O)NCc2csc(C)n2)cc1 | -7.03%
Cc1ccc(N2CCCN(C(=O)C(C(C)C)n3cncn3)CC2)nn1 (stereo not drawn) | 1.73%
CS(=O)(=O)CCC(=O)Nc1cnn(-c2ccccc2Cl)c1 | 2.48%

Structure (SMILES) | cytotoxicity at 70.5 h
Cc1[nH]ncc1C(=O)N1CCCC(c2cc(C(F)(F)F)[nH]n2)C1 (stereo not drawn) | 5.58%
CCS(=O)(=O)c1ccccc1N1CCC(NC(=O)NC2CCCC2)CC1 | -14.2%
CN1CCN(C(=O)c2ccc(=O)n(C)c2)c2ccccc21 | -1.74%
O=C(NCCC(=O)N1CCCC1)c1nn(-c2ccccc2F)cc1O | 35.9%
CC(NC(=O)NCCCN1CCCCCC1)c1nncn1C (stereo not drawn) | 0.545%
CC(NC(=O)NCCN1CCCCCC1=O)c1nncn1C (stereo not drawn) | 7.16%
COCCCN(C)C1CCCN(Cc2noc(C)n2)C1 (stereo not drawn) | 6.68%
N#Cc1ccc(F)c(CN2CCCC2Cn2cnc3ccccc32)c1 (stereo not drawn) | 7.39%
N#Cc1ccc(F)c(CN2CCCC2Cn2cccn2)c1 (stereo not drawn) | -5.17%
COCCN1CCC(N(Cc2noc(C3CC3)n2)C(C)=O)C1 (stereo not drawn) | 10.7%
CCc1nc(C2CCCN2C(=O)CCNS(C)(=O)=O)no1 (stereo not drawn) | 0.333%
Cc1nn(C)c(C)c1C1CCCN1Cc1nc(C2CC2)no1 (stereo not drawn) | 36.6%
O=C(c1cccc(Cn2ccnc2)c1)N1CCCC(n2ccnc2)C1 (stereo not drawn) | -16.1%
NC(=O)COc1cccc(C(=O)N2CCCC(n3cccn3)C2)c1 (stereo not drawn) | 28.9%
CC(C)c1ncc2c(n1)CN(Cc1nc(-c3cccs3)no1)CC2 | -11.9%
CC(NC(=O)CCc1cccs1)c1nnc2n1CCC2 (stereo not drawn) | -36.3%
CS(=O)(=O)N1CCC(C(=O)NCCNc2ncccn2)CC1 | -19.2%
COc1ncccc1NC(=O)NC1CCOc2ccccc21 (stereo not drawn) | -14.2%
O=C(c1cc(C2CC2)[nH]n1)N1CCN(Cc2ccsc2)CC1 | 22%
COc1cccc(C(=O)NS(=O)(=O)c2cccc(C#N)c2)c1OC | -13.8%
Cc1ccc(C(=O)N2CCN(Cc3nc(C(C)C)no3)CC2)c(=O)[nH]1 | 1.28%
CC(NC(=O)Cc1cccs1)c1nnc2n1CCCCC2 (stereo not drawn) | -23.9%
